Laboratory results reported in ChEMBL document CHEMBL1149371, “A strategy for the design of selective RNA binding agents. Preparation and RRE RNA binding affinities of a neomycin-peptide nucleic acid heteroconjugate library” (Bioorg Med Chem Lett, 2006).

Tests used:
[1] = molecular target: Rev responsive element (RRE) RNA; assay: Binding affinity to Rev response element RNA; type: nucleic-acid assay
[2] = molecular target: Rev responsive element (RRE) RNA; assay: Inhibition of Rev binding to Rev response element RNA in presence of competitor RNA; type: nucleic-acid assay
[3] = molecular target: Rev responsive element (RRE) RNA; assay: Inhibition of Rev binding to Rev response element RNA in absence of competitor RNA; type: nucleic-acid assay
[4] = test system: Rev responsive element (RRE) RNA; assay: Discrimination factor, Kd for tRNA/Kd for Rev response element RNA; type: nucleic-acid assay
tRNA = assay: Binding affinity to tRNA
[5] = test system: Rev responsive element (RRE) RNA; assay: Ratio of inhibition of Rev binding to Rev response element RNA in presence to absence of competitor RNA; type: nucleic-acid assay

SMILES: NC[C@@H]1O[C@H](O[C@H]2[C@@H](O)[C@H](O[C@@H]3[C@@H](O)[C@H](N)C[C@H](N)[C@H]3O[C@H]3O[C@H](CN)[C@@H](O)[C@H](O)[C@H]3N)O[C@@H]2CSCCCCCCSCC(=O)NCCN(CC(=O)NCCN(CC(N)=O)C(=O)Cn2cnc3c(O)nc(N)nc32)C(=O)Cn2ccc(N)nc2=O)[C@H](N)[C@@H](O)[C@@H]1O
- Kd [1]: 170 nM

SMILES: Cc1cn(CC(=O)N(CCNC(=O)CSCCCCCCSC[C@H]2O[C@@H](O[C@@H]3[C@@H](O)[C@H](N)C[C@H](N)[C@H]3O[C@H]3O[C@H](CN)[C@@H](O)[C@H](O)[C@H]3N)[C@H](O)[C@@H]2O[C@H]2O[C@@H](CN)[C@@H](O)[C@H](O)[C@H]2N)CC(=O)NCCN(CC(N)=O)C(=O)Cn2ccc(N)nc2=O)c(=O)[nH]c1=O
- Kd [1]: 360 nM

SMILES: NC[C@@H]1O[C@H](O[C@H]2[C@@H](O)[C@H](O[C@@H]3[C@@H](O)[C@H](N)C[C@H](N)[C@H]3O[C@H]3O[C@H](CN)[C@@H](O)[C@H](O)[C@H]3N)O[C@@H]2CO)[C@H](N)[C@@H](O)[C@@H]1O [FRAMYCETIN]
- Kd [1]: 180 nM

SMILES: NC[C@@H]1O[C@H](O[C@H]2[C@@H](O)[C@H](O[C@@H]3[C@@H](O)[C@H](N)C[C@H](N)[C@H]3O[C@H]3O[C@H](CN)[C@@H](O)[C@H](O)[C@H]3N)O[C@@H]2CSCCCCCCSCC(=O)NCCN(CC(=O)NCCN(CC(N)=O)C(=O)Cn2cnc3c(N)ncnc32)C(=O)Cn2ccc(N)nc2=O)[C@H](N)[C@@H](O)[C@@H]1O
- Kd [1]: 130 nM

SMILES: NC[C@@H]1O[C@H](O[C@H]2[C@@H](O)[C@H](O[C@@H]3[C@@H](O)[C@H](N)C[C@H](N)[C@H]3O[C@H]3O[C@H](CN)[C@@H](O)[C@H](O)[C@H]3N)O[C@@H]2CSCCCCCCSCC(=O)NCCN(CC(=O)NCCN(CC(N)=O)C(=O)Cn2cnc3c(N)ncnc32)C(=O)Cn2cnc3c(O)nc(N)nc32)[C@H](N)[C@@H](O)[C@@H]1O
- Kd [1]: 200 nM

SMILES: Cc1cn(CC(=O)N(CCNC(=O)CN(CCNC(=O)CSCCCCCCSC[C@H]2O[C@@H](O[C@@H]3[C@@H](O)[C@H](N)C[C@H](N)[C@H]3O[C@H]3O[C@H](CN)[C@@H](O)[C@H](O)[C@H]3N)[C@H](O)[C@@H]2O[C@H]2O[C@@H](CN)[C@@H](O)[C@H](O)[C@H]2N)C(=O)Cn2cnc3c(N)ncnc32)CC(N)=O)c(=O)[nH]c1=O
- Kd [1]: 250 nM

SMILES: Cc1cn(CC(=O)N(CCNC(=O)CN(CCNC(=O)CSCCCCCCSC[C@H]2O[C@@H](O[C@@H]3[C@@H](O)[C@H](N)C[C@H](N)[C@H]3O[C@H]3O[C@H](CN)[C@@H](O)[C@H](O)[C@H]3N)[C@H](O)[C@@H]2O[C@H]2O[C@@H](CN)[C@@H](O)[C@H](O)[C@H]2N)C(=O)Cn2cc(C)c(=O)[nH]c2=O)CC(N)=O)c(=O)[nH]c1=O
- Kd [1]: 130 nM

SMILES: NC[C@@H]1O[C@H](O[C@H]2[C@@H](O)[C@H](O[C@@H]3[C@@H](O)[C@H](N)C[C@H](N)[C@H]3O[C@H]3O[C@H](CN)[C@@H](O)[C@H](O)[C@H]3N)O[C@@H]2CSCCNc2c3ccccc3nc3ccccc23)[C@H](N)[C@@H](O)[C@@H]1O
- IC50 [2]: 9800 nM
- IC50 [3]: 500 nM

SMILES: NC[C@@H]1O[C@H](O[C@H]2[C@@H](O)[C@H](O[C@@H]3[C@@H](O)[C@H](N)C[C@H](N)[C@H]3O[C@H]3O[C@H](CN)[C@@H](O)[C@H](O)[C@H]3N)O[C@@H]2CSCCCCCCSCC(=O)NCCN(CC(=O)NCCN(CC(N)=O)C(=O)Cn2cnc3c(O)nc(N)nc32)C(=O)Cn2cnc3c(N)ncnc32)[C@H](N)[C@@H](O)[C@@H]1O
- Kd [1]: 38 nM
- Ratio [4]: 4.5
- Kd (tRNA): 170 nM

SMILES: Cc1cn(CC(=O)N(CCNC(=O)CN(CCNC(=O)CSCCCCCCSC[C@H]2O[C@@H](O[C@@H]3[C@@H](O)[C@H](N)C[C@H](N)[C@H]3O[C@H]3O[C@H](CN)[C@@H](O)[C@H](O)[C@H]3N)[C@H](O)[C@@H]2O[C@H]2O[C@@H](CN)[C@@H](O)[C@H](O)[C@H]2N)C(=O)Cn2cnc3c(O)nc(N)nc32)CC(N)=O)c(=O)[nH]c1=O
- Kd [1]: 93 nM
- Ratio [4]: 2.4
- Kd (tRNA): 220 nM

SMILES: NC[C@@H]1O[C@H](O[C@H]2[C@@H](O)[C@H](O[C@@H]3[C@@H](O)[C@H](N)C[C@H](N)[C@H]3O[C@H]3O[C@H](CN)[C@@H](O)[C@H](O)[C@H]3N)O[C@@H]2CSCCCCCCSCC(=O)NCCN(CC(=O)NCCN(CC(N)=O)C(=O)Cn2cnc3c(O)nc(N)nc32)C(=O)Cn2cnc3c(O)nc(N)nc32)[C@H](N)[C@@H](O)[C@@H]1O
- Kd [1]: 30 nM
- Ratio [4]: 7
- IC50 [2]: 45000 nM
- IC50 [3]: 32000 nM
- Ratio [5]: 1.4
- Kd (tRNA): 210 nM

SMILES: CC(=O)N(CCNC(=O)CSCCCCCCSC[C@H]1O[C@@H](O[C@@H]2[C@@H](O)[C@H](N)C[C@H](N)[C@H]2O[C@H]2O[C@H](CN)[C@@H](O)[C@H](O)[C@H]2N)[C@H](O)[C@@H]1O[C@H]1O[C@@H](CN)[C@@H](O)[C@H](O)[C@H]1N)CC(=O)NCCN(CC(N)=O)C(=O)Cn1cc(C)c(=O)[nH]c1=O
- Kd [1]: 270 nM

SMILES: NC[C@@H]1O[C@H](O[C@H]2[C@@H](O)[C@H](O[C@@H]3[C@@H](O)[C@H](N)C[C@H](N)[C@H]3O[C@H]3O[C@H](CN)[C@@H](O)[C@H](O)[C@H]3N)O[C@@H]2CSCCCCCCSCC(=O)NCCN(CC(=O)NCCN(CC(N)=O)C(=O)Cn2cnc3c(N)ncnc32)C(=O)Cn2cnc3c(N)ncnc32)[C@H](N)[C@@H](O)[C@@H]1O
- Kd [1]: 58 nM
- Ratio [4]: 7.1
- IC50 [2]: 68000 nM
- IC50 [3]: 55000 nM
- Ratio [5]: 1.2
- Kd (tRNA): 410 nM

SMILES: CC(=O)N(CCNC(=O)CSCCCCCCSC[C@H]1O[C@@H](O[C@@H]2[C@@H](O)[C@H](N)C[C@H](N)[C@H]2O[C@H]2O[C@H](CN)[C@@H](O)[C@H](O)[C@H]2N)[C@H](O)[C@@H]1O[C@H]1O[C@@H](CN)[C@@H](O)[C@H](O)[C@H]1N)CC(=O)NCCN(CC(N)=O)C(=O)Cn1cnc2c(O)nc(N)nc21
- Kd [1]: 130 nM

SMILES: NC[C@@H]1O[C@H](O[C@H]2[C@@H](O)[C@H](O[C@@H]3[C@@H](O)[C@H](N)C[C@H](N)[C@H]3O[C@H]3O[C@H](CN)[C@@H](O)[C@H](O)[C@H]3N)O[C@@H]2CSCCCCCCSCC(=O)NCCN(CC(=O)NCCN(CC(N)=O)C(=O)Cn2ccc(N)nc2=O)C(=O)Cn2ccc(N)nc2=O)[C@H](N)[C@@H](O)[C@@H]1O
- Kd [1]: 430 nM

SMILES: Cc1cn(CC(=O)N(CCNC(=O)CSCCCCCCSC[C@H]2O[C@@H](O[C@@H]3[C@@H](O)[C@H](N)C[C@H](N)[C@H]3O[C@H]3O[C@H](CN)[C@@H](O)[C@H](O)[C@H]3N)[C@H](O)[C@@H]2O[C@H]2O[C@@H](CN)[C@@H](O)[C@H](O)[C@H]2N)CC(=O)NCCN(CC(N)=O)C(=O)Cn2cnc3c(N)ncnc32)c(=O)[nH]c1=O
- Kd [1]: 71 nM
- Ratio [4]: 3.2
- Kd (tRNA): 230 nM

SMILES: NC[C@@H]1O[C@H](O[C@H]2[C@@H](O)[C@H](O[C@@H]3[C@@H](O)[C@H](N)C[C@H](N)[C@H]3O[C@H]3O[C@H](CN)[C@@H](O)[C@H](O)[C@H]3N)O[C@@H]2CSCCCCCCSCC(=O)NCCN(CC(=O)NCCN(CC(N)=O)C(=O)Cn2ccc(N)nc2=O)C(=O)Cn2cnc3c(N)ncnc32)[C@H](N)[C@@H](O)[C@@H]1O
- Kd [1]: 51 nM
- Ratio [4]: 1.5
- Kd (tRNA): 76 nM

SMILES: CC(=O)N(CCNC(=O)CSCCCCCCSC[C@H]1O[C@@H](O[C@@H]2[C@@H](O)[C@H](N)C[C@H](N)[C@H]2O[C@H]2O[C@H](CN)[C@@H](O)[C@H](O)[C@H]2N)[C@H](O)[C@@H]1O[C@H]1O[C@@H](CN)[C@@H](O)[C@H](O)[C@H]1N)CC(=O)NCCN(CC(N)=O)C(=O)Cn1ccc(N)nc1=O
- Kd [1]: 320 nM

SMILES: NC[C@@H]1O[C@H](O[C@H]2[C@@H](O)[C@H](O[C@@H]3[C@@H](O)[C@H](N)C[C@H](N)[C@H]3O[C@H]3O[C@H](CN)[C@@H](O)[C@H](O)[C@H]3N)O[C@@H]2CSCCCCCCSCC(=O)NCCN(CC(=O)NCCN(CC(N)=O)C(=O)Cn2ccc(N)nc2=O)C(=O)Cn2cnc3c(O)nc(N)nc32)[C@H](N)[C@@H](O)[C@@H]1O
- Kd [1]: 240 nM

SMILES: Cc1cn(CC(=O)N(CCNC(=O)CN(CCNC(=O)CSCCCCCCSC[C@H]2O[C@@H](O[C@@H]3[C@@H](O)[C@H](N)C[C@H](N)[C@H]3O[C@H]3O[C@H](CN)[C@@H](O)[C@H](O)[C@H]3N)[C@H](O)[C@@H]2O[C@H]2O[C@@H](CN)[C@@H](O)[C@H](O)[C@H]2N)C(=O)Cn2ccc(N)nc2=O)CC(N)=O)c(=O)[nH]c1=O
- Kd [1]: 110 nM
